{"source": "paper PMC3574231", "about": "(ACS chemical biology, 2012)", "key": {"[1]": {"assay": "Reversed-phase HPLC retention", "type": "physicochemical", "conditions": "chromatographic, C-18 column"}, "[2]": {"system": "MCF-7 and HEK293 cells"}}, "data": [{"substance": "cyclo(FΦRRRRQ) [Peptide 11]", "values": [{"measurement": "Retention time by reversed-phase HPLC (measure of overall hydrophobicity)", "setting": "[1]", "value": "virtually identical retention times"}]}, {"substance": "cyclo[(pCAP)FΦRRRRQ] (head to tail) [cyclic pCAP]", "values": [{"measurement": "Intracellular CAP fluorescence after pretreatment with 1 mM sodium pervanadate", "setting": "[2]", "value": "dramatically reduced"}]}]}
